Experimental data from BigSolDB 2.1.

O=C(O)c1ccc(C(=O)O)cc1
solubility (mole fraction)
Conditions	in 2-ethylhexanol	in DMAc	in DMF	in DMSO	in NMP	in pyridine
313.15 K	0.000293	0.0155	0.0325	0.0964	0.0558	0.0767
318.15 K	0.000335	0.0199	0.0337	0.0989	0.0646	0.0767
323.15 K	0.000377	0.0243	0.035	0.102	0.0736	0.0766
328.15 K	0.000429	0.0304	0.0361	0.104	0.0838	0.0768
333.15 K	0.000482	0.0365	0.0372	0.107	0.094	0.0769
338.15 K	0.000559	0.0453	0.0383	0.108	0.0952	0.077
343.15 K	0.000636	0.0541	0.0394	0.11	0.0963	0.077
348.15 K	0.000724	0.065	0.0412	0.113	0.0974	0.0774
353.15 K	0.000812	0.076	0.0429	0.116	0.0985	0.0778
358.15 K	0.000915	0.0823	0.0442	0.118	0.0999	0.0783
363.15 K	0.00102	0.0886	0.0455	0.121	0.101	0.0787
